Experimental data: US20260285875A1, “INHIBITORS OF PARG” (858 Therapeutics, Inc., priority 2023, published 2026)

Target: T1, cellular PARG (Homo sapiens, UniProt Q86W56)
T1 construct: endogenous in cells; host or cells: HeLa
Assay: Nuclear PAR accumulation assay (immunofluorescence high-content imaging, MMS-treated HeLa cells)
Type: cell-based
Details: 1 hour compound then MMS 50 μg/mL for an additional hour
Summary of the method: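 HeLa cells pretreated with compound for 1 h at 37° C, then given 50 μg/mL MMS for another hour. After methanol fixation, PAR was immunostained with DAPI nuclear counterstain; per-nucleus intensity and percent PAR-positive cells were imaged at 20× (≥1,000 cells/well). IC50 from four-parameter logistic fit.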

T1 sequence (Q86W56 whole entry): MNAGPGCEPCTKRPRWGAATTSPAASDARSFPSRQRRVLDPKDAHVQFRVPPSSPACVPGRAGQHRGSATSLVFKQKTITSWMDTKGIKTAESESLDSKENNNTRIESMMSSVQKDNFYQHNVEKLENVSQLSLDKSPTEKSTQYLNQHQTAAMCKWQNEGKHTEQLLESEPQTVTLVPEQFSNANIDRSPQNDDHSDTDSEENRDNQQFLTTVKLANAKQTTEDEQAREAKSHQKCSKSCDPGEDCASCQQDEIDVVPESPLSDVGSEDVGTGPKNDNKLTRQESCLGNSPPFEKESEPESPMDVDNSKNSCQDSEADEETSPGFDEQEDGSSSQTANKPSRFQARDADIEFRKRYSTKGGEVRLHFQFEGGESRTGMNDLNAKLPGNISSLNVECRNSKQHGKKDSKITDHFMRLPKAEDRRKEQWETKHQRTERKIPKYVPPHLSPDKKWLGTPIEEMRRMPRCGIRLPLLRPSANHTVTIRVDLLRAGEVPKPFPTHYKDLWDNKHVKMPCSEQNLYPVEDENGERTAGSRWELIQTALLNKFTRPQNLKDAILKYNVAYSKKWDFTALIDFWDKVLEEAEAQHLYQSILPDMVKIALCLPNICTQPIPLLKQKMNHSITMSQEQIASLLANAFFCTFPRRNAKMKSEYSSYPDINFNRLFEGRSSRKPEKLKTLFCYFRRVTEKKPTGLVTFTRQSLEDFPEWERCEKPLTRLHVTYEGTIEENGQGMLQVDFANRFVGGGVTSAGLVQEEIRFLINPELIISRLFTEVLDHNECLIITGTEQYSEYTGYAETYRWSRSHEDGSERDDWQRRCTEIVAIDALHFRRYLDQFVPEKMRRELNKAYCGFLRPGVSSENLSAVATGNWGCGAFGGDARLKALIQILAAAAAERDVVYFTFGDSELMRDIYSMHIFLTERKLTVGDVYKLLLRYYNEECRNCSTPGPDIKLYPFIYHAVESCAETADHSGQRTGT

Row | SMILES | IC50
1 | Cn1cc(C#C[C@H]2CN=C3N(Cc4cnn(C)c4)C(=O)c4cc(S(=O)(=O)NC5(C)CC5)ccc4N32)cn1 [Example 91, (S′)-1-((1-methyl-1H-pyrazol-4-yl)ethynyl)-4-((1-methyl-1H-pyrazol-4-yl)methyl)-N-(1-methylcyclopropyl)-5-oxo-1,2,4,5-tetrahydroimidazo[1,2-a]quinazoline-7-sulfonamide] | 100 to 1000 nM
2 | Cc1cc(F)ccc1-c1cc(S(=O)(=O)NC2(C)CC2)cc2c1N1CC(C)(C)N=C1N(Cc1cnn(C)c1)C2=O [Example 25, 9-(4-fluoro-2-methylphenyl)-2,2-dimethyl-4-((1-methyl-1H-pyrazol-4-yl)methyl)-N-(1-methylcyclopropyl)-5-oxo-1,2,4,5-tetrahydroimidazo[1,2-a]quinazoline-7-sulfonamide] | < 100 nM
3 | CN(C)C(=O)N1CCN(c2cc(S(=O)(=O)NC3(C)CC3)cc3c2N2CC(C)(C)N=C2N(C)C3=O)CC1 [Example 46, N,N-dimethyl-4-(2,2,4-trimethyl-7-(N-(1-methylcyclopropyl)sulfamoyl)-5-oxo-1,2,4,5-tetrahydroimidazo[1,2-a]quinazolin-9-yl)piperazine-1-carboxamide] | < 100 nM
4 | CCN1C(=O)c2cc(S(=O)(=O)NC3(C)CC3)ccc2N2C1=NC[C@H]2C#Cc1cnn2c1OCC(NC)C2 (stereo partly drawn) [Example 205, (1R)-4-ethyl-1-((6-(methylamino)-6,7-dihydro-5H-pyrazolo[5,i-b][1,3]oxazin-3-yl)ethynyl)-N-(1-methylcyclopropyl)-5-oxo-1,2,4,5-tetrahydroimidazo[1,2-a]quinazoline-7-sulfonamide] | 100 to 1000 nM
5 | CN1CCC[C@H]1[C@@H]1CN=C2N(Cc3cnn(C)c3)C(=O)c3cc(S(=O)(=O)NC4(C)CC4)ccc3N21 [Example 276, (S)-4-((1-methyl-1H-pyrazol-4-yl)methyl)-N-(1-methylcyclopropyl)-1-((S)-1-methylpyrrolidin-2-yl)-5-oxo-1,2,4,5-tetrahydroimidazo[1,2-a]quinazoline-7-sulfonamide] | < 100 nM
6 | CN1C(=O)c2cc(S(=O)(=O)NC3(C)CC3)ccc2N2C1=NCC2C#Cc1c[nH]c2cnccc12 (stereo not drawn) [Example 168, 1-((1H-pyrrolo[2,3-c]pyridin-3-yl)ethynyl)-4-methyl-N-(1-methylcyclopropyl)-5-oxo-1,2,4,5-tetrahydroimidazo[1,2-a]quinazoline-7-sulfonamide] | 100 to 1000 nM
7 | Cn1cc(CN2C(=O)c3cc(S(=O)(=O)NC4(C)CC4)ccc3N3C2=NC[C@H]3C#Cc2ccnn2C(F)F)cn1 [Example 210, (R)-1-((1-(difluoromethyl)-1H-pyrazol-5-yl)ethynyl)-4-((1-methyl-1H-pyrazol-4-yl)methyl)-N-(1-methylcyclopropyl)-5-oxo-1,2,4,5-tetrahydroimidazo[1,2-a]quinazoline-7-sulfonamide] | < 100 nM
8 | CN1CCC[C@@H]1C#C[C@@H]1CN=C2N(Cc3cnn(C)c3)C(=O)c3cc(S(=O)(=O)NC4(C)CC4)ccc3N21 [Example 256, (R)-4-((1-methyl-1H-pyrazol-4-yl)methyl)-N-(1-methylcyclopropyl)-1-(((R)-1-methylpyrrolidin-2-yl)ethynyl)-5-oxo-1,2,4,5-tetrahydroimidazo[1,2-a]quinazoline-7-sulfonamide] | < 100 nM
9 | [2H]C([2H])(c1cnn(C)c1)N1C(=O)c2cc(S(=O)(=O)NC3(C)CC3)ccc2N2C1=NC[C@H]2C#Cc1cccnn1 [Example 260, (R)-4-((1-methyl-1H-pyrazol-4-yl)methyl-d2)-N-(1-methylcyclopropyl)-5-oxo-1-(pyridazin-3-ylethynyl)-1,2,4,5-tetrahydroimidazo[1,2-a]quinazoline-7-sulfonamide] | < 100 nM
10 | Cn1cc(CN2C(=O)c3cc(S(=O)(=O)NC4(C)CC4)ccc3N3C2=NC[C@H]3CC(F)(F)F)cn1 [Example 39, (R)-4-((1-methyl-1H-pyrazol-4-yl)methyl)-N-(1-methylcyclopropyl)-5-oxo-1-(2,2,2-trifluoroethyl)-1,2,4,5-tetrahydroimidazo[1,2-a]quinazoline-7-sulfonamide] | < 100 nM
11 | [2H]C([2H])(c1cnn(C)c1)N1C(=O)c2cc(S(=O)(=O)NC3(C)CC3)c(N)cc2N2C1=N[C@H]1CCC[C@H]12 [Example 234, (7aS,10aR)-2-amino-6-((1-methyl-1H-pyrazol-4-yl)methyl-d2)-N-(1-methylcyclopropyl)-5-oxo-6,7a,8,9,10,10a-hexahydro-5H-cyclopenta[4,5]imidazo[1,2-a]quinazoline-3-sulfonamide] | < 100 nM
12 | CCN1C(=O)c2cc(S(=O)(=O)NC3(C)CC3)ccc2N2C1=NC[C@H]2C#Cc1cnc2cc(CN(C)C)cnn12 [Example 191, (R)-1-((7-((dimethylamino)methyl)imidazo[1,2-b]pyridazin-3-yl)ethynyl)-4-ethyl-N-(1-methylcyclopropyl)-5-oxo-1,2,4,5-tetrahydroimidazo[1,2-a]quinazoline-7-sulfonamide] | < 100 nM

Second part, the molecule after the results:

Row | IC50 | SMILES
13 | < 100 nM | [2H]C([2H])(c1cnn(C)c1)N1C(=O)c2cc(S(=O)(=O)NC3(C)CC3)ccc2N2C1=NC[C@H]2C#CC1=CCNCC1 [Example 281, (R)-4-((1-methyl-1H-pyrazol-4-yl)methyl-d2)-N-(1-methylcyclopropyl)-5-oxo-1-((1,2,3,6-tetrahydropyridin-4-yl)ethynyl)-1,2,4,5-tetrahydroimidazo[1,2-a]quinazoline-7-sulfonamide]
14 | < 100 nM | [2H]C([2H])(c1cnn(C)c1)N1C(=O)c2cc(S(=O)(=O)NC3(C)CC3)ccc2N2C1=NC[C@H]2C#Cc1cccc(N)n1 [Example 104, (R)-1-((6-aminopyridin-2-yl)ethynyl)-4-((1-methyl-1H-pyrazol-4-yl)methyl-d2)-N-(1-methylcyclopropyl)-5-oxo-1,2,4,5-tetrahydroimidazo[1,2-a]quinazoline-7-sulfonamide]
15 | < 100 nM | C[C@@H]1CN=C2N(Cc3cnn(C)c3)C(=O)c3cc(S(=O)(=O)NC4(C)CC4)cc(N4CCN(C)CC4)c3N21 [Example 10, (R)-1-methyl-4-((1-methyl-1H-pyrazol-4-yl)methyl)-N-(1-methylcyclopropyl)-9-(4-methylpiperazin-1-yl)-5-oxo-1,2,4,5-tetrahy droimidazo[1,2-a]quinazoline-7-sulfonamide]
16 | < 100 nM | CC1(NS(=O)(=O)c2ccc3c(c2)N(c2nnc(C(F)F)s2)C2=NOCCN23)CC1 [Example 86, 10-(5-(difluoromethyl)-1,3,4-thiadiazol-2-yl)-N-(1-methylcyclopropyl)-3,4-dihydro-10H-benzo[4,5]imidazo[2,1-c][1,2,4]oxadiazine-8-sulfonamide]
17 | < 100 nM | CCN1C(=O)c2cc(S(=O)(=O)NC3(C)CC3)ccc2N2C1=NC[C@H]2C#Cc1cnc2cccnn12 [Example 189, (R)-4-ethyl-1-(imidazo[1,2-b]pyridazin-3-ylethynyl)-N-(1-methylcyclopropyl)-5-oxo-1,2,4,5-tetrahydroimidazo[1,2-a]quinazoline-7-sulfonamide]
18 | < 100 nM | COc1ccc(C#CC2CN=C3N(C)C(=O)c4cc(S(=O)(=O)NC5(C)CC5)ccc4N32)cn1 (stereo not drawn) [Example 204, 1-((6-methoxypyridin-3-yl)ethynyl)-4-methyl-N-(1-methylcyclopropyl)-5-oxo-1,2,4,5-tetrahydroimidazo[1,2-a]quinazoline-7-sulfonamide]
